# According to PubChem BioAssay (NCI):
#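 Test compounds were applied to cells in 96-well plates for 48 hours at 5 doses. At the GI50, growth is halved. At the TGI there is no net growth.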
# Assays:
# Experiment in all cases: NCI anticancer screen, dose series, 48 h
# SW-620 colon = tested on: SW-620 colon
# RXF 393 renal = tested on: RXF 393 renal
# SK-MEL-2 melanoma = tested on: SK-MEL-2 melanoma
# MCF7 breast = tested on: MCF7 breast
# SK-MEL-5 melanoma = tested on: SK-MEL-5 melanoma
# SK-MEL-28 melanoma = tested on: SK-MEL-28 melanoma
# HCT-15 colon = tested on: HCT-15 colon
# HCC-2998 colon = tested on: HCC-2998 colon
# HOP-62 NSCLC = tested on: HOP-62 NSCLC
# A549 NSCLC = tested on: A549 NSCLC
# PC-3 prostate = tested on: PC-3 prostate
# MDA-MB-435 = tested on: MDA-MB-435
# U251 CNS = tested on: U251 CNS
# NCI-H226 lung = tested on: NCI-H226 lung
# OVCAR-4 ovarian = tested on: OVCAR-4 ovarian
# CCRF-CEM leukemia = tested on: CCRF-CEM leukemia
# LOX IMVI melanoma = tested on: LOX IMVI melanoma
# KM12 colon = tested on: KM12 colon
# NCI-H460 lung = tested on: NCI-H460 lung
# HOP-92 NSCLC = tested on: HOP-92 NSCLC
# SK-OV-3 ovarian = tested on: SK-OV-3 ovarian
# BT-549 breast = tested on: BT-549 breast
# IGROV1 ovarian = tested on: IGROV1 ovarian
# HCT-116 colon = tested on: HCT-116 colon
# MALME-3M melanoma = tested on: MALME-3M melanoma
# SF-295 CNS = tested on: SF-295 CNS
# T-47D breast = tested on: T-47D breast
# SNB-75 CNS = tested on: SNB-75 CNS
# 786-0 renal = tested on: 786-0 renal
# MOLT-4 leukemia = tested on: MOLT-4 leukemia
# UACC-62 melanoma = tested on: UACC-62 melanoma
# NCI/ADR-RES ovarian = tested on: NCI/ADR-RES ovarian
# SR leukemia = tested on: SR leukemia
# HS 578T breast = tested on: HS 578T breast
# SF-539 CNS = tested on: SF-539 CNS
# K-562 leukemia = tested on: K-562 leukemia
# OVCAR-5 ovarian = tested on: OVCAR-5 ovarian
# HL-60(TB) leukemia = tested on: HL-60(TB) leukemia
# RPMI-8226 leukemia = tested on: RPMI-8226 leukemia
# M14 melanoma = tested on: M14 melanoma
# OVCAR-8 ovarian = tested on: OVCAR-8 ovarian
# CAKI-1 renal = tested on: CAKI-1 renal
# A498 renal = tested on: A498 renal
# TK-10 renal = tested on: TK-10 renal
# ACHN renal = tested on: ACHN renal
# MDA-MB-231 breast = tested on: MDA-MB-231 breast
# SN12C renal = tested on: SN12C renal
# SNB-19 CNS = tested on: SNB-19 CNS
# UACC-257 melanoma = tested on: UACC-257 melanoma
# DU-145 prostate = tested on: DU-145 prostate
# OVCAR-3 ovarian = tested on: OVCAR-3 ovarian
# HT29 colon = tested on: HT29 colon
# COLO 205 colon = tested on: COLO 205 colon
# UO-31 renal = tested on: UO-31 renal
# SF-268 CNS = tested on: SF-268 CNS
# NCI-H522 lung = tested on: NCI-H522 lung
# EKVX NSCLC = tested on: EKVX NSCLC
smiles,measurement,setting,value
COc1cc(OC)c(S(N)(=O)=O)cc1C(=O)/C=C/c1ccccc1,GI50,SW-620 colon,2.68 µM
same,TGI,SW-620 colon,13.4 µM
same,GI50,RXF 393 renal,1.9 µM
same,TGI,RXF 393 renal,7.74 µM
same,GI50,SK-MEL-2 melanoma,12.6 µM
same,TGI,SK-MEL-2 melanoma,26.5 µM
same,GI50,MCF7 breast,0.97 µM
same,TGI,MCF7 breast,14.2 µM
same,GI50,SK-MEL-5 melanoma,17.6 µM
same,TGI,SK-MEL-5 melanoma,32.4 µM
same,GI50,SK-MEL-28 melanoma,12.5 µM
same,TGI,SK-MEL-28 melanoma,25.3 µM
same,GI50,HCT-15 colon,3.55 µM
same,TGI,HCT-15 colon,20.1 µM
same,GI50,HCC-2998 colon,12.5 µM
same,TGI,HCC-2998 colon,26.2 µM
same,GI50,HOP-62 NSCLC,9.51 µM
same,TGI,HOP-62 NSCLC,22.6 µM
same,GI50,A549 NSCLC,10.5 µM
same,TGI,A549 NSCLC,22.7 µM
same,GI50,PC-3 prostate,5.95 µM
same,TGI,PC-3 prostate,20.6 µM
same,GI50,MDA-MB-435,2.12 µM
same,TGI,MDA-MB-435,12 µM
same,GI50,U251 CNS,2.92 µM
same,TGI,U251 CNS,15.2 µM
same,GI50,NCI-H226 lung,10 µM
same,TGI,NCI-H226 lung,26.4 µM
same,GI50,OVCAR-4 ovarian,11.8 µM
same,TGI,OVCAR-4 ovarian,25.7 µM
same,GI50,CCRF-CEM leukemia,3.93 µM
same,TGI,CCRF-CEM leukemia,67.2 µM
same,GI50,LOX IMVI melanoma,0.335 µM
same,TGI,LOX IMVI melanoma,12.4 µM
same,GI50,KM12 colon,3.31 µM
same,TGI,KM12 colon,18.5 µM
same,GI50,NCI-H460 lung,1.95 µM
same,TGI,NCI-H460 lung,12.5 µM
same,GI50,HOP-92 NSCLC,2.06 µM
same,TGI,HOP-92 NSCLC,12 µM
same,GI50,SK-OV-3 ovarian,14.4 µM
same,TGI,SK-OV-3 ovarian,27.6 µM
same,GI50,BT-549 breast,2.65 µM
same,TGI,BT-549 breast,14.1 µM
same,GI50,IGROV1 ovarian,9.74 µM
same,TGI,IGROV1 ovarian,27.6 µM
same,GI50,HCT-116 colon,1.49 µM
same,TGI,HCT-116 colon,14.8 µM
same,GI50,MALME-3M melanoma,13.9 µM
same,TGI,MALME-3M melanoma,29.3 µM
same,GI50,SF-295 CNS,15.7 µM
same,TGI,SF-295 CNS,30.3 µM
same,GI50,T-47D breast,2.09 µM
same,TGI,T-47D breast,12.1 µM
same,GI50,SNB-75 CNS,2.08 µM
same,TGI,SNB-75 CNS,7.32 µM
same,GI50,786-0 renal,4.82 µM
same,TGI,786-0 renal,20.8 µM
same,GI50,MOLT-4 leukemia,10.1 µM
same,TGI,MOLT-4 leukemia,43.1 µM
same,GI50,UACC-62 melanoma,12.2 µM
same,TGI,UACC-62 melanoma,26.9 µM
same,GI50,NCI/ADR-RES ovarian,15.5 µM
same,TGI,NCI/ADR-RES ovarian,57.6 µM
same,GI50,SR leukemia,1.73 µM
same,TGI,SR leukemia,24.8 µM
same,GI50,HS 578T breast,5.89 µM
same,TGI,HS 578T breast,43.3 µM
same,GI50,SF-539 CNS,2.44 µM
same,TGI,SF-539 CNS,8.98 µM
same,GI50,K-562 leukemia,1.5 µM
same,TGI,K-562 leukemia,22.3 µM
same,GI50,OVCAR-5 ovarian,13.2 µM
same,TGI,OVCAR-5 ovarian,26.7 µM
same,GI50,HL-60(TB) leukemia,2.27 µM
same,TGI,HL-60(TB) leukemia,23.2 µM
same,GI50,RPMI-8226 leukemia,2.98 µM
same,TGI,RPMI-8226 leukemia,21.4 µM
same,GI50,M14 melanoma,7.51 µM
same,TGI,M14 melanoma,23.8 µM
same,GI50,OVCAR-8 ovarian,11.3 µM
same,TGI,OVCAR-8 ovarian,24.1 µM
same,GI50,CAKI-1 renal,1.86 µM
same,TGI,CAKI-1 renal,15.6 µM
same,GI50,A498 renal,16.9 µM
same,TGI,A498 renal,30.7 µM
same,GI50,TK-10 renal,12.9 µM
same,TGI,TK-10 renal,25.8 µM
same,GI50,ACHN renal,7 µM
same,TGI,ACHN renal,20.1 µM
same,GI50,MDA-MB-231 breast,11.9 µM
same,TGI,MDA-MB-231 breast,27 µM
same,GI50,SN12C renal,3.49 µM
same,TGI,SN12C renal,16.9 µM
same,GI50,SNB-19 CNS,14 µM
same,TGI,SNB-19 CNS,28.5 µM
same,GI50,UACC-257 melanoma,9.96 µM
same,TGI,UACC-257 melanoma,21.8 µM
same,GI50,DU-145 prostate,1.88 µM
same,TGI,DU-145 prostate,13.9 µM
same,GI50,OVCAR-3 ovarian,2.71 µM
same,TGI,OVCAR-3 ovarian,13.1 µM
same,GI50,HT29 colon,4.02 µM
same,TGI,HT29 colon,13.8 µM
same,GI50,COLO 205 colon,10.6 µM
same,TGI,COLO 205 colon,24 µM
same,GI50,UO-31 renal,4.76 µM
same,TGI,UO-31 renal,19 µM
same,GI50,SF-268 CNS,5.88 µM
same,TGI,SF-268 CNS,22.9 µM
same,GI50,NCI-H522 lung,6.56 µM
same,TGI,NCI-H522 lung,20.8 µM
same,GI50,EKVX NSCLC,14.2 µM
same,TGI,EKVX NSCLC,27.6 µM
